Results as given in patent publication US20070197442A1, “Methods for the Treatment of Macular Degeneration and Related Eye Conditions” (priority 2006, published 2007).

Key:
[1] = test system: apo E expression in HepG2 cells; conditions: cited from earlier work
LCAT = target: T1, LCAT (Homo sapiens, UniProt P04180); experiment: in vitro LCAT activation; type: biochemical; conditions: in the presence of lipids; % of the activity of native apoA-I
T1 sequence (P04180 25-440): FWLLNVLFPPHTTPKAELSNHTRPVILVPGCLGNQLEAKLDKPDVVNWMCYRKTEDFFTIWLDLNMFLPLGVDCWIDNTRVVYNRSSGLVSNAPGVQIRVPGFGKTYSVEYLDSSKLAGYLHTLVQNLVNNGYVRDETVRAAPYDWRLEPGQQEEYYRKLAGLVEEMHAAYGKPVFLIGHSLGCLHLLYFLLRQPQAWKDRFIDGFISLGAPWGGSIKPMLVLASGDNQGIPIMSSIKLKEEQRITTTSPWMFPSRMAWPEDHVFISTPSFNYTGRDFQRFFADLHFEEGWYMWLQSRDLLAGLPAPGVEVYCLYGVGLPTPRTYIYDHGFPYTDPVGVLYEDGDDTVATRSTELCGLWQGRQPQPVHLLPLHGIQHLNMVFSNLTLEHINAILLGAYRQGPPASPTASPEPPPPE
Description: ESP24218 (SEQ ID NO:1), the peptide component of the peptide/phospholipid complex, is a 22 amino acid peptide having a helical structure and amphipathic properties designed based on the helical repeats of apoA-I. In the presence of lipids, this peptide approaches 100% of the activity of native apoA-I in in vitro LCAT activation. The peptide can be prepared by chemical synthesis using any technique known to those of skill in the art. The peptide can be prepared by the synthetic techniques described in U.S. Pat. No. 6,004,925, incorporated herein by reference in its entirety for all purposes. Typically, ESP24218 (SEQ ID NO:1) is produced by a stepwise chemical synthesis on a solid support. In preferable embodiments, all amino acids in the peptide are natural L-α-amino acids in configuration. Generally, the amino and carboxyl termini of the peptide are free. The amino acid sequence of ESP24218 (SEQ ID NO:1) is shown in FIG. 1, which is as follows: H-[…]OH. The phospholipid can be obtained from any source known to those of skill in the art. […]

| activity in in vitro LCAT activation relative to native apoA-I (LCAT) [%] | Substance | increase of expression of apo E [1] |
| --- | --- | --- |
| – | Thyroid hormone | three |
| ~100 | H-Pro-Val-Leu-Asp-Leu-Phe-Arg-Glu-Leu-Leu-Asn-Glu-Leu-Leu-Glu-Ala-Leu-Lys-Gln-Lys-Leu-Lys-OH [ESP24218] | – |
